Data from US20210170122A1, “METHOD OF WEIGHT REGULATION USING NEBULIZED NICOTINE” (priority 2016, published 2021).

Assays:
[1] = remark: listed apart in the source
Protocol: The nicotine solution used for nicotine treatment contains 0.05 milligram of nicotine (free base) per milliliter of solution ([…]). The active mesh nebulizer activates the active mesh for a single inhalation period of 3 seconds (0.05 minute) to deliver the dose of nicotine to the patient.
The nicotine solution used for nicotine treatment contains 0.5 milligram of nicotine (free base) per milliliter of solution (0.5 mg/ml). The active mesh nebulizer activates the active mesh for a single inhalation period of 3 seconds (0.05 minute) to deliver the dose of nicotine to the patient.
The nicotine solution used for nicotine treatment contains 0.01 milligram of nicotine (free base) per milliliter of solution (0.01 mg/ml). The active mesh nebulizer activates the active mesh for a single inhalation period of 3 seconds (0.05 minute) to deliver the dose of nicotine to the patient.
The hypothetical patient receives the nicotine dose at a regular interval (e.g., about every 2 hours) for a weight monitoring period (e.g., about 2 months in the present hypothetical example), after which the hypothetical patient is weighed to determine the effect of the nebulized nicotine solution on the hypothetical patient's weight.

With `CN1CCCC1c1cccnc1` (stereo not shown) [nicotine] the “period with no desire for further nicotine inhalation” value (0.5 mg nicotine/ml (0.05%), single inhalation plume, 0.2 ml/minute for 10 seconds, according to theory and belief) was 2 to 3 h, the “period of nicotine satiety (no desire for further nicotine inhalation)” value (1/40 mg nicotine/ml (0.025% nicotine), 0.2 ml/min, nebulization time 10 seconds, according to theory and belief) was “at least two hours” and the “time to brain response” value (in vivo) was “less than 10 seconds”. The “management of nicotine cravings” value ([1]; Example 1: patient, 2-pack per day smoker, 0.0005 mg dose (0.2 ml/min, 0.05 mg/ml, 3 seconds) by inhalation approximately every two hours) was “sufficient to manage nicotine cravings”, the “patient's weight versus weight when smoking cigarettes” value ([1]; Example 1: patient, 2-pack per day smoker, 0.0005 mg dose by inhalation approximately every two hours) was “holding the patient's weight at the same level as when the patient was smoking cigarettes” and the “lethargy, or lassitude” value ([1]; Example 2: patient, 2-pack per day smoker, 0.005 mg dose (0.2 ml/min, 0.5 mg/ml, 3 seconds) by inhalation) was “sufficiently large to produce lethargy, or lassitude”. The “effect on patient's weight” value ([1]; Example 3: hypothetical patient, 0.01 mg/ml solution, 0.2 ml/min, 3 seconds, about every 2 hours for about 2 months) was “has lost weight”.
